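In this assay, cells in 96-well plates receive the compound at five concentrations for 48 hours. Endpoints are linearly interpolated between the surrounding concentrations. GI50 is the concentration that inhibits growth by half. Definition used: TGI = concentration required for complete inhibition of growth.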
Legend:
Test in all cases: DTP human tumour cell line panel, 48 h
SNB-75 CNS = tested on: SNB-75 CNS
NCI-H23 lung = tested on: NCI-H23 lung
IGROV1 ovarian = tested on: IGROV1 ovarian
MALME-3M melanoma = tested on: MALME-3M melanoma
SK-OV-3 ovarian = tested on: SK-OV-3 ovarian
SNB-19 CNS = tested on: SNB-19 CNS
SK-MEL-5 melanoma = tested on: SK-MEL-5 melanoma
OVCAR-5 ovarian = tested on: OVCAR-5 ovarian
CAKI-1 renal = tested on: CAKI-1 renal
UACC-257 melanoma = tested on: UACC-257 melanoma

Structure (SMILES)	GI50 (SNB-75 CNS)	TGI (SNB-75 CNS)	GI50 (NCI-H23 lung)	TGI (NCI-H23 lung)	GI50 (IGROV1 ovarian)	TGI (IGROV1 ovarian)	GI50 (MALME-3M melanoma)	TGI (MALME-3M melanoma)	GI50 (SK-OV-3 ovarian)	TGI (SK-OV-3 ovarian)	GI50 (SNB-19 CNS)	TGI (SNB-19 CNS)	GI50 (SK-MEL-5 melanoma)	TGI (SK-MEL-5 melanoma)	GI50 (OVCAR-5 ovarian)	TGI (OVCAR-5 ovarian)	GI50 (CAKI-1 renal)	TGI (CAKI-1 renal)	GI50 (UACC-257 melanoma)	TGI (UACC-257 melanoma)
O=C([CH-]C(=O)c1ccccc1)c1ccccc1.[C-]#[O+].[C-]#[O+].[Ir]	45.6 µM	> 100 µM	52.8 µM	> 100 µM	88.3 µM	> 100 µM	> 100 µM	> 100 µM	> 100 µM	> 100 µM	66.4 µM	> 100 µM	39.3 µM	> 100 µM	> 100 µM	> 100 µM	79.1 µM	> 100 µM	> 100 µM	> 100 µM
Cc1cc(N(CCC#N)S(=O)(=O)c2ccccc2)ccc1C=Nc1cccc(C(=O)O)c1		> 100 µM		> 100 µM		> 100 µM		> 100 µM		> 100 µM		> 100 µM		> 100 µM		> 100 µM		> 100 µM		> 100 µM

Reference: PubChem BioAssay (NCI)
